Measurements published in ChEMBL document CHEMBL1255230, “Chemical inhibitor of nonapoptotic cell death with therapeutic potential for ischemic brain injury” (Nat Chem Biol, 2005).
The source made the active and inactive calls. The rule behind the calls is not given here.

How the values were obtained:
[1] = system: Jurkat; assay: Effect on cell cycle in human Jurkat cells assessed as cells in G1 phase; format: functional, cell-based
[2] = system: Jurkat; assay: Effect on cell cycle in human Jurkat cells assessed as cells in G2/M phase; format: functional, cell-based
[3] = Inhibition of death receptor signaling mediated necroptotic cell death in mouse 3T3 cells assessed as decreased levels of PE-conjugated autophagy marker LC3-II after 24 hrs by Western blot method in presence of rapamycin; format: cell-based; conditions: NIH3T3
[4] = Inhibition of death receptor signaling mediated necroptotic cell death in human Jurkat cells deficient in FADD and expressing RIP kinase domain assessed as cell viability after 48 hrs by FACS in presence of AP1510; format: cell-based
[5] = system: Jurkat; assay: Effect on gene expression in human Jurkat cells after 16 hrs by Agilent DNA chip analysis; format: functional, cell-based
[6] = Inhibition of death receptor signaling mediated necroptotic cell death in human Jurkat cells deficient in FADD and expressing RIP K45M mutant assessed as cell viability after 48 hrs by FACS in presence of AP1510; format: cell-based
[7] = system: Jurkat; assay: Inhibition of necrosis in human Jurkat cells deficient in FADD assessed as inhibition of nuclear condensation by bright field microscopy in presence of TNFalpha; format: functional, cell-based
[8] = Inhibition of death receptor signaling mediated apoptosis in human Jurkat cell assessed as inhibition of plasma membrane permeability after 24 hrs by in presence of FasL, CHX and zVAD.fmk; format: cell-based
[9] = system: Jurkat; assay: Effect on apoptosis in human Jurkat cell assessed as plasma membrane blebbing by electron microscopy in presence of FasL and CHX; format: functional, cell-based
[10] = system: Jurkat; assay: Effect on cell cycle in human Jurkat cells assessed as cells in S phase; format: functional, cell-based
[11] = Inhibition of death receptor signaling mediated necroptotic cell death in human Jurkat cells deficient in FADD and expressing FKBP12-based dimerization domain assessed as cell viability after 48 hrs by FACS in presence of AP1510
[12] = system: U-937; assay: Inhibition of apoptosis in human U937 cells assessed as cell viability after 48 hrs by ATP based viability assay in presence of TNFalpha and CHX; format: functional
[13] = Inhibition of death receptor signaling mediated necroptotic cell death in human Jurkat cells deficient in FADD and expressing RIP kinase domain assessed as cell viability after 48 hrs by FACS in presence of AP1510, zVAD-fmk; format: cell-based
[14] = Inhibition of death receptor signaling mediated necrotic cell death in SV40 transformed mouse MEF cells assessed as cell viability after 16 hrs by ATP based viability assay in presence of TNFalpha, CHX and zVAD.fmk
[15] = Inhibition of death receptor signaling mediated necroptotic cell death in human Jurkat cells deficient in FADD and expressing RIP K45M mutant assessed as cell viability after 48 hrs by FACS in presence of AP1510, zVAD-fmk; format: cell-based
[16] = system: Jurkat; assay: Effect on cell cycle in human Jurkat cells deficient in FADD assessed as cells in S phase in presence of TNFalpha relative to control; format: functional
[17] = system: NIH3T3; assay: Effect on morphology of mitochondria in mouse 3T3 cells after 24 hrs by anti-cytochrome c immunofluorescence in presence of TNFalpha and zVAD-fmk; format: functional, cell-based
[18] = Inhibition of death receptor signaling mediated necroptotic cell death in human Jurkat cell deficient in FADD assessed as cell viability after 30 hrs by ATP based viability assay in presence of TNFalpha
[19] = system: Jurkat; assay: Effect on cell cycle in human Jurkat cells deficient in FADD assessed as cells in S phase relative to control; format: functional
[20] = Inhibition of death receptor signaling mediated necroptotic cell death in mouse 3T3 cells assessed as cell viability after 24 hrs by ATP based viability assay in presence of TNFalpha and zVAD-fmk; conditions: NIH3T3
[21] = Inhibition of death receptor signaling mediated necroptotic cell death in human Jurkat cell deficient in FADD assessed as inhibition of mitochondrial dysfunction after 24 hrs by in presence of TNFalpha; format: cell-based
[22] = system: NIH3T3; assay: Effect on morphology of nucleus in mouse 3T3 cells after 24 hrs by TO-PRO-3 staining in presence of TNFalpha and zVAD-fmk; format: functional, cell-based
[23] = Inhibition of death receptor signaling mediated necrotic cell death in mouse 3T3 cells assessed as cell viability after 24 hrs by ATP based viability assay in presence of TNFalpha and zVAD.fmk; conditions: NIH3T3
[24] = system: Mus musculus; assay: Inhibition of necroptosis in icv dosed mouse middle cerebral artery occlusion induced ischemic injury model assessed as reduction of infarct volume; format: functional, organism-based
[25] = system: Jurkat; assay: Effect on cell cycle in human Jurkat cells deficient in FADD assessed as cells in G2/M phase in presence of TNFalpha relative to control; format: functional
[26] = system: Jurkat; assay: Effect on cell cycle in human Jurkat cells deficient in FADD assessed as cells in sub-G1 phase in presence of TNFalpha relative to control; format: functional
[27] = Inhibition of death receptor signaling mediated necroptotic cell death in human Jurkat cells deficient in FADD and expressing RIP kinase assessed as cell viability after 48 hrs by FACS in presence of AP1510, zVAD-fmk; format: cell-based
[28] = system: Jurkat; assay: Inhibition of necrosis in human Jurkat cells deficient in FADD assessed as inhibition of appearance of translucent cytosol in presence of TNFalpha; format: functional, cell-based
[29] = system: Jurkat; assay: Inhibition of necrosis in human Jurkat cells deficient in FADD assessed as inhibition of early loss of plasma membrane integrity by bright field microscopy in presence of TNFalpha; format: functional, cell-based
[30] = system: NIH3T3; assay: Inhibition of apoptosis in mouse 3T3 cells assessed as cell viability after 24 hrs by ATP based viability assay in presence of TNFalpha and CHX; format: functional
[31] = Inhibition of death receptor signaling mediated necroptotic cell death in human Jurkat cells deficient in FADD assessed as decreased levels of PE-conjugated LC3-II (autophagy marker) after 24 hrs by Western blot method in presence of TNFalpha; format: cell-based
[32] = Inhibition of death receptor signaling mediated necrotic cell death in mouse 3T3 cells assessed as cell viability after 24 hrs by ATP based viability assay in presence of FasL and zVAD.fmk; conditions: NIH3T3
[33] = Inhibition of death receptor signaling mediated apoptosis in human Jurkat cell assessed as inhibition of mitochondrial dysfunction after 24 hrs by in presence of FasL, CHX and zVAD.fmk; format: cell-based
[34] = system: Jurkat; assay: Inhibition of necrosis in human Jurkat cells assessed as appearance of translucent cytosol in presence of FasL, CHX and zVAD-fmk; format: functional, cell-based
[35] = system: Jurkat; assay: Effect on changes in cell shape in human Jurkat cells; format: functional, cell-based
[36] = Inhibition of death receptor signaling mediated necrotic cell death in human HL60 cells assessed as cell viability in presence of TNFalpha and zVAD.fmk; format: cell-based; conditions: HL-60
[37] = Inhibition of death receptor signaling mediated necroptotic cell death in mouse L929 cells assessed as decreased levels of PE-conjugated autophagy marker LC3-II after 24 hrs by Western blot method in presence of TNFalpha; format: cell-based
[38] = Inhibition of death receptor signaling mediated necroptotic cell death in human Jurkat cells deficient in FADD and expressing RIP kinase assessed as cell viability after 48 hrs by FACS in presence of AP1510; format: cell-based
[39] = system: Jurkat; assay: Effect on cell cycle in human Jurkat cells assessed as cells in sub-G1 phase; format: functional, cell-based

## CN1C(=O)C(Cc2c[nH]c3ccccc23)NC1=S (stereo not given) [NECROSTATIN]
[1]
  Activity: inactive
[2]
  Activity: inactive
[3]
  inhibition: Active
[4]
  inhibition: Active
[5]
  Activity: inactive
[6]
  inhibition: Active
[7]
  inhibition: Active
[8]
  inhibition: Active
[9]
  Activity: inactive
[10]
  Activity: inactive
[11]
  inhibition: Active
[12]
  inhibition: inactive
[13]
  inhibition: Active
[14]
  inhibition: Active
[15]
  inhibition: Active
[16]
  Activity: 44.8%
[17]
  Activity: inactive
[18]
  IC50: 0.494 µM
  inhibition: Active
[19]
  Activity: 45.1%
[20]
  inhibition: Active
[21]
  inhibition: Active
[22]
  Activity: inactive
[23]
  inhibition: Active
[24]
  inhibition: Active
[25]
  Activity: 12.1%
[26]
  Activity: 0.7%
[27]
  inhibition: Active
[28]
  inhibition: Active
[29]
  inhibition: Active
[30]
  inhibition: inactive
[31]
  inhibition: Active
[32]
  inhibition: Active
[33]
  inhibition: Active
[34]
  inhibition: Active
[35]
  Activity: inactive
[36]
  inhibition: Active
[37]
  inhibition: Active
[38]
  inhibition: Active
[39]
  Activity: inactive
